These results are taken from the supplement of paper PMC10307832.

Assay in all cases: relative viability (nuclei count vs DMSO), 5 days (fraction); higher = more cells survive
Compound in test [1]: CC1=C(C(=NN1)C)CC2=C(C3=C(S2)N(C(=O)N(C3=O)C)CC(C)C)C(=O)N4C[C@@H](CO4)O + CC(C)C[C@H](NC(=O)[C@H](Cc1ccccc1)NC(=O)c1cnccn1)B(O)O [Bortezomib] (partner 0.002 µM)
In outline:
(§1)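 Cells from lung cancer lines were seeded into 1536-well plates and, one day later, dosed by pin tool. Treatments were either a single drug or a fixed dose of an anchor drug with five library-drug doses (not always all listed) in √10 steps. After 5 days, nuclei were stained in a one-step fixation (final 0.05% Triton X-100, 1% formaldehyde, 1 ug/ml Hoechst) and counted on 4× images, and relative viability is the treated-to-vehicle nuclei ratio, as the median of duplicate plates.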

Compound in test [2]: CC1=C(C(=NN1)C)CC2=C(C3=C(S2)N(C(=O)N(C3=O)C)CC(C)C)C(=O)N4C[C@@H](CO4)O + CS(=O)(=O)N1CCN(Cc2cc3nc(-c4cccc5[nH]ncc45)nc(N4CCOCC4)c3s2)CC1 [Pictilisib] (partner 1 µM)
The essentials: as §1

Compound in test [3]: CC1=C(C(=NN1)C)CC2=C(C3=C(S2)N(C(=O)N(C3=O)C)CC(C)C)C(=O)N4C[C@@H](CO4)O + O=C(c1cc(Cc2n[nH]c(=O)c3ccccc23)ccc1F)N1CCN(C(=O)C2CC2)CC1 [Olaparib] (partner 8 µM)
In outline:
as §1

Compound in the test “IDH-C35 + Dasatinib”: Cc1ccccc1C(C(=O)NC1CCCCC1)N(C(=O)Cn1ccnc1C)c1cccc(F)c1 [IDH-C35] + Cc1nc(Nc2ncc(C(=O)Nc3c(C)cccc3Cl)s2)cc(N2CCN(CCO)CC2)n1 [Dasatinib] (partner 0.075 µM)
The essentials: as §1

COR-L 105: the relative viability stood at 0.841 in test [1] (first compound 0.0025 µM); 0.763 in test [1] (first compound 0.007906 µM); 0.882 in test [1] (first compound 0.025 µM); 0.73 in test [1] (first compound 0.07906 µM); 0.802 in test [1] (first compound 0.25 µM); 0.406 in test [2] (first compound 0.0025 µM). Also, the relative viability in test [2] (first compound 0.007906 µM) stood at 0.445; in test [2] (first compound 0.025 µM), 0.376; in test [2] (first compound 0.07906 µM) it was 0.398; in test [2] (first compound 0.25 µM), 0.356; in test [3] (first compound 0.0025 µM), 0.604; in test [3] (first compound 0.007906 µM) it was 0.587. For the same cell line, the relative viability in test [3] (first compound 0.025 µM) came out at 0.617; in test [3] (first compound 0.07906 µM), 0.771; in test [3] (first compound 0.25 µM), 0.656; with IDH-C35 + Dasatinib (first compound 0.08 µM) it was 0.394; with IDH-C35 + Dasatinib (first compound 0.253 µM), 0.394; with IDH-C35 + Dasatinib (first compound 0.8 µM), 0.403. For the same cell line, the relative viability with IDH-C35 + Dasatinib (first compound 2.53 µM) is 0.323; in the test with IDH-C35 + Dasatinib (first compound 8 µM), 0.349.
For the cell line Calu-6, the relative viability is 1.05 in test [1] (first compound 0.0025 µM); 1.05 in test [1] (first compound 0.007906 µM); 0.904 in test [1] (first compound 0.025 µM); 1.12 in test [1] (first compound 0.07906 µM); 1.09 in test [1] (first compound 0.25 µM); 1.01 in test [2] (first compound 0.0025 µM). In addition, the relative viability was determined as 0.939 in test [2] (first compound 0.007906 µM); 0.887 in test [2] (first compound 0.025 µM); 0.949 in test [2] (first compound 0.07906 µM); 0.981 in test [2] (first compound 0.25 µM); 0.532 in test [3] (first compound 0.0025 µM); 0.501 in test [3] (first compound 0.007906 µM). Further, the relative viability in test [3] (first compound 0.025 µM) came to 0.557; in test [3] (first compound 0.07906 µM) it was 0.59; in test [3] (first compound 0.25 µM), 0.603.
For the cell line ChaGo-K-1, the relative viability in test [1] (first compound 0.0025 µM) turned out to be 0.906; in test [1] (first compound 0.007906 µM), 0.859; in test [1] (first compound 0.07906 µM) it was 1.11; in test [1] (first compound 0.25 µM), 1.35; in test [2] (first compound 0.0025 µM), 0.794; in test [2] (first compound 0.007906 µM), 0.608. The relative viability stood at 1.01 in test [2] (first compound 0.07906 µM); 1.04 in test [2] (first compound 0.25 µM); 0.466 in test [3] (first compound 0.0025 µM); 0.42 in test [3] (first compound 0.007906 µM); 0.414 in test [3] (first compound 0.025 µM); 0.404 in test [3] (first compound 0.07906 µM). Besides, the relative viability in test [3] (first compound 0.25 µM) was determined as 0.435; with IDH-C35 + Dasatinib (first compound 0.08 µM) it was 0.64; with IDH-C35 + Dasatinib (first compound 0.253 µM), 0.615; with IDH-C35 + Dasatinib (first compound 0.8 µM), 0.598; with IDH-C35 + Dasatinib (first compound 2.53 µM), 0.63; in the test with IDH-C35 + Dasatinib (first compound 8 µM), 0.601.
EBC-1: the relative viability in test [1] (first compound 0.0025 µM) worked out at 0.602; in test [1] (first compound 0.007906 µM), 0.553; in test [1] (first compound 0.025 µM), 0.588; in test [1] (first compound 0.07906 µM) it was 0.639; in test [1] (first compound 0.25 µM), 0.648; in test [2] (first compound 0.0025 µM), 0.396. The relative viability turned out to be 0.333 in test [2] (first compound 0.007906 µM); 0.447 in test [2] (first compound 0.025 µM); 0.493 in test [2] (first compound 0.07906 µM); 0.444 in test [2] (first compound 0.25 µM); 0.738 in test [3] (first compound 0.0025 µM); 0.705 in test [3] (first compound 0.007906 µM). Besides, the values for the relative viability in test [3] (first compound 0.025 µM), in test [3] (first compound 0.07906 µM) and in test [3] (first compound 0.25 µM) were 0.718, 0.836 and 0.748, respectively.
For EKVX, the relative viability in test [1] (first compound 0.0025 µM) was 1.02; in test [1] (first compound 0.007906 µM) it was 1.33; in test [1] (first compound 0.025 µM), 1.07; in test [1] (first compound 0.07906 µM), 0.992; in test [1] (first compound 0.25 µM) it was 1.03; in test [2] (first compound 0.0025 µM), 0.544. The relative viability in test [2] (first compound 0.007906 µM) came to 0.485; in test [2] (first compound 0.025 µM) it was 0.457; in test [2] (first compound 0.07906 µM) it was 0.449; in test [2] (first compound 0.25 µM), 0.42; in test [3] (first compound 0.0025 µM) it was 1.02; in test [3] (first compound 0.007906 µM), 0.969. The relative viability in test [3] (first compound 0.025 µM) stood at 0.892; in test [3] (first compound 0.07906 µM), 0.775; in test [3] (first compound 0.25 µM) it was 0.988; with IDH-C35 + Dasatinib (first compound 0.08 µM), 0.568; with IDH-C35 + Dasatinib (first compound 0.253 µM) it was 0.53; with IDH-C35 + Dasatinib (first compound 0.8 µM), 0.57. For the same cell line, the relative viability with IDH-C35 + Dasatinib (first compound 2.53 µM) worked out at 0.494; with IDH-C35 + Dasatinib (first compound 8 µM), 0.61.
Turning to EMC-BAC-2, the relative viability in test [1] (first compound 0.0025 µM) was determined as 1.15; in test [1] (first compound 0.007906 µM), 1.15; in test [1] (first compound 0.025 µM), 1.04; in test [1] (first compound 0.07906 µM) it was 1.06; in test [1] (first compound 0.25 µM), 1.1; in test [2] (first compound 0.0025 µM), 0.512. In addition, the relative viability in test [2] (first compound 0.007906 µM) stood at 0.573; in test [2] (first compound 0.025 µM), 0.521; in test [2] (first compound 0.07906 µM), 0.505; in test [2] (first compound 0.25 µM) it was 0.594; in test [3] (first compound 0.0025 µM) it was 0.546; in test [3] (first compound 0.007906 µM), 0.464. In addition, the relative viability in test [3] (first compound 0.025 µM) was 0.474; in test [3] (first compound 0.07906 µM) it was 0.489; in test [3] (first compound 0.25 µM) it was 0.527; with IDH-C35 + Dasatinib (first compound 0.08 µM) it was 0.355; in the test with IDH-C35 + Dasatinib (first compound 0.253 µM) it was 0.346; with IDH-C35 + Dasatinib (first compound 0.8 µM), 0.348. The relative viability with IDH-C35 + Dasatinib (first compound 2.53 µM) is 0.298; in the test with IDH-C35 + Dasatinib (first compound 8 µM) it was 0.281.
In the case of EPLC-272H, the relative viability in test [1] (first compound 0.0025 µM) came to 0.919; in test [1] (first compound 0.007906 µM) it was 0.874; in test [1] (first compound 0.025 µM), 0.971; in test [1] (first compound 0.07906 µM), 1.01; in test [1] (first compound 0.25 µM), 0.925; in test [2] (first compound 0.0025 µM), 0.317. The relative viability in test [2] (first compound 0.007906 µM) came out at 0.293; in test [2] (first compound 0.025 µM) it was 0.29; in test [2] (first compound 0.07906 µM) it was 0.314; in test [2] (first compound 0.25 µM), 0.384; in test [3] (first compound 0.0025 µM) it was 0.69; in test [3] (first compound 0.007906 µM) it was 0.778. Further, the relative viability in test [3] (first compound 0.025 µM) came to 0.771; in test [3] (first compound 0.07906 µM) it was 0.844; in test [3] (first compound 0.25 µM) it was 1.09; with IDH-C35 + Dasatinib (first compound 0.08 µM), 0.432; with IDH-C35 + Dasatinib (first compound 0.253 µM) it was 0.357; in the test with IDH-C35 + Dasatinib (first compound 0.8 µM) it was 0.506. The relative viability amounted to 0.653 with IDH-C35 + Dasatinib (first compound 2.53 µM) and 0.323 with IDH-C35 + Dasatinib (first compound 8 µM).
